Read-outs that look alike come from different tables or passages of the source. One block for each molecule: values may come before it.
Legend:
[1] = system: HIV-IIIb; test: Antiviral assay in MT4 cells; format: cell-based; conditions: read-out: EC50
Method: 1 mL aliquots of 2×10^6 MT4 cells are pre-infected for 1 and 3 hours respectively at 37° C. with 25 μL (MT4) or of either cell growth medium (mock-infected) or a fresh 1:250 dilution of an HIV-IIIb concentrated ABI stock (0.004 m.o.i. for MT4 cells). Infected and uninfected cells are diluted in cell growth medium and 35 μL of 2000 (for MT4) cells is added to each well of the assay plates.
(§1) Assay plates were then incubated in a 37° C. incubator. After 5 days of incubation, 25 μL of 2× concentrated CellTiter-Glo™ Reagent (catalog # G7573, Promega Biosciences, Inc., Madison, Wis.) was added to each well of the assay plate. Cell lysis was carried out by incubating at room temperature for 2-3 minutes, and then chemiluminescence was read using the Envision reader (PerkinElmer).

[2] = Cytotoxicity (CC50) in MT4 cells, mock-infected; format: cell-based; conditions: human, mock-infected (uninfected)
Method: as §1, with “Infected and uninfected cells are diluted in cell growth medium and 35 μL of 2000 (for MT4) cells is added to each well of the assay plates. Assay” for “Assay”

[3] = target: OCT2 (Homo sapiens (Human), UniProt O15244); test: OCT2 inhibition assay (14C-TEA uptake, OCT2-transfected MDCKII cells); format: cell-based
OCT2, sequence (O15244 whole entry): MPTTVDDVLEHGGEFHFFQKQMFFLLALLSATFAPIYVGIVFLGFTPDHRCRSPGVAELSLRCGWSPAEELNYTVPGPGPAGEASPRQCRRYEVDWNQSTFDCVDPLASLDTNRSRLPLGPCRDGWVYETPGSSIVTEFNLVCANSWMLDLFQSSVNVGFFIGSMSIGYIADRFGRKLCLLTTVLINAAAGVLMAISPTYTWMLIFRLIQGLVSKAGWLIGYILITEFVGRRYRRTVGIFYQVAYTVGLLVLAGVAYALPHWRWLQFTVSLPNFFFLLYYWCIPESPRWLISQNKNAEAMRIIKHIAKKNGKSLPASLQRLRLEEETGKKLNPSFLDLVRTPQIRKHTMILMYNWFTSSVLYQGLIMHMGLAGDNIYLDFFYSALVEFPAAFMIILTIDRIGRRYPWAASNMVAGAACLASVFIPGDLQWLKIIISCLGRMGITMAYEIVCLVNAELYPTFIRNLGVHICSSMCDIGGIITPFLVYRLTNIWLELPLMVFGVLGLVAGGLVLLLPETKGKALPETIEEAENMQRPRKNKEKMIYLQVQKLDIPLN
Method: MDCKII cells were maintained in minimal essential medium (MEM) with 1% Pen/Strep, 10% fetal bovine serum, and 0.25 mg/mL hygromycin B in an incubator set at 37° C., 90% humidity and 5% CO2. 24 hours prior to assay, media containing 5 mM sodium butyrate were added to MDCKII cells in flasks, and cells were grown to 80-90% confluence. On assay day, cells were trypsinized and resuspended in Krebs-Henseleit Buffer (KHB), pH 7.4 at […]. Cells were preincubated for 15 min in assay plate before addition of test compound or substrate.
Test compounds were serially diluted in DMSO and then spiked (2 μL) into in 0.4 mL KHB buffer containing wild-type or OCT2-transfected cells and incubated for 10 minutes. Assay was initiated with the addition of 0.1 mL of 100 μM ^14C-TEA in KHB buffer (20 μM final concentration after mixing). The concentration of TEA is based on the Km. After 10 minutes of incubation, the assay mixture was quenched with addition of 0.5 mL of ice-cold 1×PBS buffer. Samples were then centrifuged at 1000 rpm for 5 min and supernatants were removed. Wash steps were repeated four times with ice-cold PBS. Finally, the cell pellets were lysed with 0.2N NaOH and let sit at room temperature for at least 30 min to ensure complete lysis. Samples were then counted on liquid scintillation counter and dpm counts were used to perform the following calculations. The % inhibition was calculated as follows: % inhibition=[1−{[OCT2]i−[WT]ni}/{[OCT2]ni−[WT]ni}]*100 where, [OCT2]i represents the dpm count in the presence of test compound for either OCT2 cells, […] of test compound for OCT2 cells and [WT]ni represents the dpm count in the absence of test compound for wild type cells, respectively.

[4] = target: PXR (NR1I2) (Homo sapiens (Human), UniProt O75469); test: Human PXR activation assay (luciferase reporter, DPX2 cells); format: cell-based; conditions: human; 15 uM; DPX2 cells; % Emax relative to rifampicin, adjusted for DMSO background; read-out: PXR % inh at 15 uM (adjusted)
PXR (NR1I2), sequence (O75469 whole entry): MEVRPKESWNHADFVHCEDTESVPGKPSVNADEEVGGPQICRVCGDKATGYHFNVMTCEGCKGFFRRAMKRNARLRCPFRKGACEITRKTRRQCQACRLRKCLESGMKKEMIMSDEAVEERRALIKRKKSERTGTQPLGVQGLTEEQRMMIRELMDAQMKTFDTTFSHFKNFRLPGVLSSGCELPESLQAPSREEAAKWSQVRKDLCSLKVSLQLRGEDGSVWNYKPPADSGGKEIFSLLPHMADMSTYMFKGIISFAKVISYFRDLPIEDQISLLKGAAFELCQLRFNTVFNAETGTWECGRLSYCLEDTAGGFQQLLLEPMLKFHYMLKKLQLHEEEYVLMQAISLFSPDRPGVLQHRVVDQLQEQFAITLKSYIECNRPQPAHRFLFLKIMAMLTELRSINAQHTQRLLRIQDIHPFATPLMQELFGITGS
Method: (§2) Luciferase Reporter Gene Assay.
(§3) A stably transformed tumor cell line (DPX2) was plated on 96-well microtiter plates. […]. The number of viable cells was determined and the reporter gene activity was assessed. […]

[5] = system: MT4 cells; test: Cytotoxicity (CC50) in MT4 cells, mock-infected; format: cell-based; conditions: 5 days
Method: as §1, with “Infected and uninfected cells are diluted in cell growth medium and 35 μL of 2000 (for MT4) cells is added to each well of the assay plates. Assay” for “Assay”

[6] = target: human PXR (Homo sapiens (Human), UniProt O75469); test: Human PXR activation assay (luciferase reporter, DPX2 cells); format: cell-based; conditions: 15 uM; DPX2 cells; % Emax relative to rifampicin, adjusted for DMSO background
human PXR, sequence (O75469 whole entry): as above
Method: as §2, §3

[7] = Pharmacokinetics after intravenous infusion to male SD rats; format: in vivo; conditions: Sprague-Dawley, plasma, rat, IV infusion 0.5 mg/kg
Method: (§4) Pharmacokinetic analysis was performed on compounds 25b and 39 following intravenous or oral administration to rats.
(§5) The test compounds were formulated in 5% Ethanol, 55% PEG 300, and 40% water at 0.1 mg/mL for IV infusion and for oral dosing.
(§6) Each dosing group consisted of 3 male, Sprague-Dawley rats. At dosing, the animals weighed an average of 0.25 kg. The animals were fasted overnight prior to dose administration and up to 4 hr after dosing.
(§7) For the IV infusion group, the test article was administered by intravenous infusion over 30 min. The rate of infusion was adjusted according to the body weight of each animal to deliver a dose of 0.5 mg/kg. For the oral dosing group, the test article was administered by oral gavage at 5 mL/kg for a dose of 0.5 mg/kg.
For pharmacokinetic analysis of intravenously administered compounds, serial venous blood samples (approximately 0.3 mL each) were taken from each animal at 0, 0.250, 0.483, 0.583, 0.750, 1.50, 3.00, 6.00, 8.00, 12.0, 24.0, 48 and 72 hours after dosing. The blood samples were collected into Vacutainer™ tubes containing EDTA-K2 as the anti-coagulant and were immediately placed on wet ice pending centrifugation for plasma. An LC/MS/MS method was used to measure the concentration of the test compound in plasma. An aliquot of 50 μL of each plasma sample was added to a clean 96 well plate, and 200 μL of cold acetonitrile/internal standard solution (ACN)/(ISTD) was added. After protein precipitation, an aliquot of 110 μL of the supernatant was transferred to a clean 96-well plate and diluted with 300 μL of water. An aliquot of 10 μL of the above solution was injected into a ABSciex API-4000 triple quadrupole LC/MS/MS system utilizing a HyPurity C18 HPLC column (30×2.1 mm, 3μ), from Thermo-Hypersil (Part #22103-032130). An Agilent 1200 series binary pump (P/N G1312A Bin Pump) was used for elution and separation, and an HTS Pal autosampler (LEAP Technologies, Carrboro, N.C.) was used for sample injection. A API-4000 triple quadrupole mass spectrometer was utilized in multiple reaction monitoring mode (Applied Biosystems, Foster City, Calif.). Liquid chromatography was performed using two mobile phases: mobile phase A contained 0.1% formic acid and 1% isopropylamine in aqueous solution, and mobile phase B contained […]. Non-compartmental pharmacokinetic analysis was performed on the plasma concentration-time data. The resulting data are shown in the first three columns of Table 2. In Table 2, Cl refers to clearance, which characterizes the rate at which drug is removed from plasma. The lower the clearance of a drug is, the longer the elimination half-life is in the body. Vss refers to the steady state volume of distribution and indicates how well a drug is distributed into the tissues. The larger the Vss is, the longer the elimination half-life is in the body. MRT refers to mean residence time, which is a measure of the average time molecules exist in the body.

[8] = Pharmacokinetics after oral administration to male SD rats; format: in vivo; conditions: Sprague-Dawley, plasma, rat, oral gavage 0.5 mg/kg, solution, read-out: % F (solution)
Method: as §4, §5, §6, §7
For pharmacokinetic analysis of orally administered compounds, serial venous blood samples (approximately 0.3 mL each) were taken from each animal at time points of 0, 0.25, 0.50, 1.0, 2.0, 4.0, 6.0, 8.0, 12.0 24.0, 48.0 and 72 hours after dosing. Blood samples were collected, prepared and analyzed in a similar way to the intravenous studies described above. Non-compartmental pharmacokinetic analysis was performed on the plasma concentration-time data. In Table 2, F (%) refers to oral bioavailability.

[9] = system: HIV-1 E138K/Q148K; format: cell-based; conditions: MT2 cells; mean EC50 mutant / mean EC50 wt
Method: (§8) For the antiviral assay utilizing MT-2 cells, 50 μL of 2× test concentration of 3-fold serially diluted compound in culture medium with 10% FBS was added to each well of a 96-well plate (9 concentrations) in triplicate. MT-2 cells were infected with wild-type or mutant variants of HIV-1 for 3 hours using a volume of viral inoculum determined to produce 90% cell killing. Fifty microliters of infected cell suspension in culture medium with 10% FBS (˜1.5×10^4 cells) was then added to each well containing 50 μL of serially diluted compound. The plates with HIV-infected cultures were then incubated at 37° C. for 5 days in the presence of the tested compounds. After 5 days of incubation, 100 μL of CellTiter-Glo™ Reagent (catalog # G7571, Promega Biosciences, Inc., Madison, Wis.) was added to each well. Cell lysis was carried out by incubating at room temperature for 10 min followed by a chemiluminescence read-out.
(§9) The chemiluminescence readout from the 10-point antiviral dose response was analyzed directly by curve fitting with equation (I) to determine the EC50.
(§10) where y=Cell Survival, M=maximum cell survival enabled by drug protection, H=baseline cell survival without drug protection, n=Hill coefficient of the antiviral dose response, m=Hill coefficient of the cytotoxicity dose response, and [I]=inhibitor concentration.
(§11) EC50 values (mean±standard deviation) were calculated from at least three independent experiments performed in triplicate. The fold-change in antiviral activity of tested compounds was calculated as a ratio of the mean EC50 for each mutant virus divided by the mean EC50 of the control WT virus.

[10] = system: HIV-1 E92Q/N155H; format: cell-based; conditions: MT2 cells; mean EC50 mutant / mean EC50 wt
Method: as §8, §9, §10, §11

[11] = system: HIV-1 G140S/Q148R; format: cell-based; conditions: MT2 cells; mean EC50 mutant / mean EC50 wt
Method: as §8, §9, §10, §11

[12] = system: HIV-1 N155H/Q148R; format: cell-based; conditions: MT2 cells; mean EC50 mutant / mean EC50 wt
Method: as §8, §9, §10, §11

[13] = system: wild-type HIV-1; test: Antiviral assay in MT-2 cells, wild-type HIV-1; format: cell-based; conditions: Human immunodeficiency virus 1, 120 h; MT2 cells, wild-type HIV-1, 5 days; read-out: wt
Method: as §8, §9, §10, §11

[14] = Plasma protein binding (equilibrium dialysis); format: in vitro ADME; conditions: human, plasma (sodium EDTA) dialysed against buffer; 2 μM in plasma vs. buffer, 24 hours at 37° C.; read-out: % Free HP/Buffer
Method: Plasma protein binding was determined using a HTD96b equilibrium dialyzer with a plate base, stainless steel pressure plate and Teflon bock. 9 Teflon bars, labeled sequentially from A through I, were assembled with two stainless steel connecting rods. Membranes were placed between two Teflon bars, with the membrane placed approximately 2 mm below the top edge of the bar and the lower membrane edge overlapped the bottom of all wells. The membrane was soaked for about 20 minutes in water, about 20 minutes in ethanol (30/70 v/v) and rinsed with water three times to remove the ethanol. It was soaked in PBS for at least 30 minutes. Plasma in sodium EDTA (Bioreclamation or equivalent) was used. The Plasma (not pH-adjusted) was stored at −80° C. and thawed at room temperature before use. The stock solution of the compounds tested was at 200 μM in DMSO. The quench solution used was 50 nM of an internal standard in 100% ACN. To prepare a 2 μM solution of the compound tested in plasma, 5 μL of a 200 μM stock solution was added to 495 μL of blank plasma. 100 μL plasma was added with 2 μM of test compound into one side of the well. 100 μL of buffer (for plasma vs. buffer) was added into another side of the well. The 96-well plate was covered using an adhesive sealing film and incubated for 24 hours at 37° C. under slow rotation. This procedure was replicated for each compound. 50 μL of plasma sample was put into a 96 well plate, 50 μL of buffer was added. 50 μL of buffer was put into a 96 well plate. 50 μL of plasma was added. 300 μL of quench solution was added and the plate sealed and shaken for 15 minutes. The material was centrifuged for 30 minutes at 3000 RPM and ˜250 μL was transferred into a short plate. The samples were analyzed by LC/MS. The resulting data is shown in the last row of Table 3 as “% Free” which corresponds to the percentage of compound not protein bound.

[15] = Human immunodeficiency virus 1, IIIB, MT4, 120 h, MT4 cells, HIV-IIIb, 5 days

EC50 [1, 15]: 0.00626 µM | IC50 [3]: 6.4 µM | inhibition at 24 h, 15 µM [4]: 18%
Compound: CCN1C(=O)c2c(O)c(=O)c(C(=O)NCc3c(F)cc(F)cc3F)cn2[C@@H]2CCOC[C@H]21 [Compound 12]
CC50 at 5 days [2]: 36.5 µM

Compound: O=C(NCc1c(F)cc(F)cc1F)c1cn2c(c(O)c1=O)C(=O)N(CC(F)(F)F)[C@@H]1COCC[C@@H]12 [Compound 32]
EC50 [1]: 0.0038 µM | CC50 [5]: 57.1 µM | IC50 [3]: 10 µM | PXR % inh at 15 uM (adjusted) [6]: 19%

EC50 [1, 15]: 0.00262 µM | IC50 [3]: 10 µM | inhibition at 24 h, 15 µM [4]: 1%
Compound: O=C(NCc1c(F)cc(F)cc1F)c1cn2c(c(O)c1=O)C(=O)N(CC(F)(F)F)[C@H]1COCC[C@H]12 [Compound 31]
CC50 at 5 days [2]: 52.5 µM

Compound: C[C@@H]1CCO[C@H]2Cn3cc(C(=O)NCc4ccc(F)cc4F)c(=O)c(O)c3C(=O)N12 [Dolutegravir, reference compound]
MRT [7]: 12.4 h | clearance [7]: 0.167 mL/min/kg | Vd ([7]; read-out: Vss): 0.17 L/kg | bioavailability [8]: 84% | Resistance fold shift E138K/Q148K vs. wild type [9]: 8.2 fold shift | Resistance fold shift E92Q/N155H vs. wild type [10]: 1.9 fold shift | Resistance fold shift G140S/Q148R vs. wild type [11]: 3.7 fold shift | Resistance fold shift N155H/Q148R vs. wild type [12]: 2.5 fold shift | EC50 [13]: 0.0017 µM | fraction unbound at 24 h, 2 µM [14]: 0.01

EC50 ([1]; MT4 cells, HIV-IIIb, 5 days): 0.00253 µM | inhibition at 24 h, 15 µM [4]: 65%
Compound: CN1C(=O)c2c(O)c(=O)c(C(=O)NCc3c(F)cc(F)cc3F)cn2[C@@H]2CCCC[C@@H]21 [Compound 4]
CC50 [5]: 10.5 µM

From patent US9795602B2, “Polycyclic-carbamoylpyridone compounds and their pharmaceutical use” (Gilead Sciences, Inc., priority 2014, dated 2017)
